Measured values taken from US7763585B2, “Methods for inhibiting tumor cell proliferation” (priority 2003, dated 2010).
pIC50: −log10 of the molar value.

Assays:
[1] = biological target: T1, Stat3 (Mus musculus, UniProt P42227); assay: Stat3 DNA-binding activity (EMSA) in extracted treated tumors; assay type: in vivo; conditions: FIG. 8A
T1 construct: from tissue; host or cells: extracted B16 melanoma / CT26 colon tumour tissue from mice
Method: (§1) FIGS. 8A-C show tumor regression induced by platinum (IV) chloride. Tumor models in mice using B16 melanoma and CT26 colon tumors both of which harbor constitutively-active Stat3 were treated by intra-tumoral injection with doses of platinum (IV) chloride and tumor sizes monitored every other day for up to 9 days. FIG. 8A is a photograph showing extracted tumor tissues were analyzed for Stat3 activity in in vitro DNA-binding assays and EMSA analysis. FIG. 8B and FIG. 8C show tumor sizes monitored by calipers plotted against days of treatment.
(§2) The antitumor efficacy of platinum (IV) chloride of the invention using mouse models of melanoma and colon tumors was evaluated. Established tumors were directly injected with doses of platinum (IV) chloride and tumor size subsequently monitored. […] In parallel studies, treated tumors were extracted and Stat3 activity determined on the basis of DNA-binding activity analyzed by EMSA. […] Together, the findings support inhibition of constitutively-active STATs by platinum (IV) chloride leads to regression of melanoma and colon tumors.

[2] = system: B16 melanoma; assay: Mouse model of melanoma tumor, intra-tumoral injection; assay type: in vivo; conditions: direct intra-tumoral injection, monitored up to 9 days, FIG. 8
Method: as §1, §2

[3] = system: CT26 colon tumors; assay: Mouse model of colon tumor, intra-tumoral injection; assay type: in vivo; conditions: direct intra-tumoral injection, monitored up to 9 days, FIG. 8
Method: as §1, §2

[4] = biological target: T2, Stat3:Stat3 (Mus musculus, UniProt P42227); assay: EMSA, disruption of Stat3:Stat3 DNA-binding activity in vitro (hSIE probe); assay type: biochemical; conditions: for Level of DNA-binding activity of Stat3 (EMSA): EGF-stimulated fibroblast nuclear extracts, 30 min preincubation, FIG. 1A
T2 construct: endogenous in cells; host or cells: EGF-stimulated fibroblasts (nuclear extract)
Method: (§3) FIGS. 1A-D are photographs showing EMSA analyses of DNA-binding activities and effects of platinum complexes. Nuclear extracts containing activated Stat1, Stat3 and Stat5 are treated with the indicated concentrations of platinum complex ISSCPA-1, ISSCPA-3, ISSCPA-7, or PtCl4 for 30 min at room temperature prior to incubation with radiolabeled oligonucleotide probes. […] Positions of complexes of DNA with STAT, E2F1 or NFκB (p65, p50) in gel are labeled. Control lanes represent nuclear extracts that are not pre-incubated with platinum complexes.
(§4) Nuclear extracts were prepared from cell lines and used for EMSA as previously described (Turkson et al., 1998; Yu et al., 1995; Garcia et al., 1997). In some cases, cells were pre-treated with platinum complexes for the indicated times prior to harvesting. Where cells were stimulated with EGF (6 ng/ml), duration of treatment was 15 min. Nuclear extracts were pre-incubated with compounds for 30 min at room temperature prior to incubation with radiolabeled probe. The ^32P-radiolabeled oligonucleotide probes used are hSIE (high affinity sis-inducible element, m67 variant, 5′-[…]-3′) (SEQ ID NO:1) that binds both Stat1 and Stat3 (Garcia et al., 1997; Wagner et al., 1990), MGFe (mammary gland factor element from the bovine β-casein gene promoter, 5′-AGATTTCTAGGAATTCAA-3′) (SEQ ID NO:2) that binds Stat1 and Stat5 (Gouilleux et al., 1995; Seidel et al., 1995), the NF-κB binding oligo (5′-[…]-3′) (SEQ ID NO:3), and the oligonucleotide sequence from the DHFR promoter that binds E2F1.
(§5) Platinum compounds were evaluated for inhibitory activity against STAT DNA-binding in vitro.

[5] = biological target: T3, Stat1:Stat3 (Mus musculus, UniProt P42225+P42227); assay: EMSA, disruption of Stat1:Stat3 DNA-binding activity in vitro (hSIE probe); assay type: biochemical
T3 construct: endogenous in cells; host or cells: EGF-stimulated fibroblasts (nuclear extract)
Method: as §3, §4, §5

[6] = biological target: T4, Stat1:Stat1 (Mus musculus, UniProt P42225); assay: EMSA, disruption of Stat1:Stat1 DNA-binding activity in vitro (hSIE probe); assay type: biochemical
T4 construct: endogenous in cells; host or cells: EGF-stimulated fibroblasts (nuclear extract)
T4 sequence (P42225 2-749 limits assumed): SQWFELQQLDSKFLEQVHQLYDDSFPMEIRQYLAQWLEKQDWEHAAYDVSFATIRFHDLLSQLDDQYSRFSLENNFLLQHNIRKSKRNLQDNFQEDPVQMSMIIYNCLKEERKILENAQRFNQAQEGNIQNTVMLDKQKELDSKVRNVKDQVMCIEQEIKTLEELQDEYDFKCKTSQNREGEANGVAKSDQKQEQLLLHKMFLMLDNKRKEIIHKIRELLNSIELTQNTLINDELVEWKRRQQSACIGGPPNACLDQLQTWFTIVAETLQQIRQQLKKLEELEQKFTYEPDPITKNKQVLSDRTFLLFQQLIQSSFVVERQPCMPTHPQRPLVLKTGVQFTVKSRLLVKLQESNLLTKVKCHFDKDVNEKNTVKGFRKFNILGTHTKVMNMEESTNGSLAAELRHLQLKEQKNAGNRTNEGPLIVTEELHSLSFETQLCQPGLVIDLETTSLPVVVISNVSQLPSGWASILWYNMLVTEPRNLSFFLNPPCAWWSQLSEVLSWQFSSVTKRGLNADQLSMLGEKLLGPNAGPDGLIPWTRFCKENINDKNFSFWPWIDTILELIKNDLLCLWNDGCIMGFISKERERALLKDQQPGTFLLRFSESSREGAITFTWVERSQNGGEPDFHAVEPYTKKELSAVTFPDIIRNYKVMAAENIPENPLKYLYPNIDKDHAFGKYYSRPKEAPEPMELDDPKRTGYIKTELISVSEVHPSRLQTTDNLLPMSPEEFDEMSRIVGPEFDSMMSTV
Method: as §3, §4, §5

[7] = system: Stat5; assay: EMSA, Stat5 DNA-binding activity in vitro (MGFe probe); assay type: biochemical, mouse; conditions: FIG. 1B
Method: as §3, §4, §5

[8] = system: Stat3; assay: EMSA of nuclear extracts from treated cells with constitutively-activated Stat3; assay type: cell-based, mouse and human; conditions: Src-transformed fibroblasts and human tumor cells, FIG. 3
Method: FIG. 3 is a photograph showing the evaluation of effects of platinum complexes on Stat3 activation analyzed by EMSA. Nuclear extracts prepared from malignant cells that contain constitutively-activated Stat3 and treated with platinum complexes for the indicated times were analyzed by EMSA using hSIE oligonucleotide probe. Extracts were prepared from v-Src-transformed NIH3T3/v-Src; human breast carcinoma MDA-MB-231; MDA-MB-435; and […]. Position of Stat3:DNA complex in gel is shown.
as §4, with “5′-[…]-3′)” for “5′-AGATTTCTAGGAATTCAA-3′)”
The effects of platinum complexes on persistent activation of Stat3 in Src-transformed fibroblasts and human tumor cells were investigated. […] These studies were then extended to evaluate the effects of the platinum complexes on Stat3 transcriptional activity.

T2 sequence (P42227 2-770 limits assumed): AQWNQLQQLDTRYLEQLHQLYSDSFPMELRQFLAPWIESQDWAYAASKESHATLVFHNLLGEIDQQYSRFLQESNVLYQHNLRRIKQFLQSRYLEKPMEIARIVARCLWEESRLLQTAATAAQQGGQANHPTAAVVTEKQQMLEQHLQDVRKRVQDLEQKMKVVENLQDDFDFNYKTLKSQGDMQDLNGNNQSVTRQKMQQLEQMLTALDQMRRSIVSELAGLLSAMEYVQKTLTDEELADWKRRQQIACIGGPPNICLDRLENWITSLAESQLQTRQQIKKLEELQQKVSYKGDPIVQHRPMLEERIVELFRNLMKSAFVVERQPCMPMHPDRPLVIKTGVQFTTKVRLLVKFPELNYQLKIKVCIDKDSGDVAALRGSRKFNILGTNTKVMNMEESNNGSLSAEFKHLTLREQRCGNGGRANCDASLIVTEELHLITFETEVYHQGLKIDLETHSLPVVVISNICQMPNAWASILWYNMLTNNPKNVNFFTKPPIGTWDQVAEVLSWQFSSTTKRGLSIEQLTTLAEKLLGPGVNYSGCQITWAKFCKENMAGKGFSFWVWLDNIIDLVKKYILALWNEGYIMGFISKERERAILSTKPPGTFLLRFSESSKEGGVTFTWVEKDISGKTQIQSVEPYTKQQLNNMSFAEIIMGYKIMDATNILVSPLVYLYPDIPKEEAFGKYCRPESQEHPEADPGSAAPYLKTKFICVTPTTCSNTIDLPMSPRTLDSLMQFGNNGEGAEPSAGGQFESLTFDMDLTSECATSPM
T3 sequence (P42227 2-770 limits assumed, one chain of several): as the sequence (P42227 2-770 limits assumed) above
T1 sequence (P42227 whole entry): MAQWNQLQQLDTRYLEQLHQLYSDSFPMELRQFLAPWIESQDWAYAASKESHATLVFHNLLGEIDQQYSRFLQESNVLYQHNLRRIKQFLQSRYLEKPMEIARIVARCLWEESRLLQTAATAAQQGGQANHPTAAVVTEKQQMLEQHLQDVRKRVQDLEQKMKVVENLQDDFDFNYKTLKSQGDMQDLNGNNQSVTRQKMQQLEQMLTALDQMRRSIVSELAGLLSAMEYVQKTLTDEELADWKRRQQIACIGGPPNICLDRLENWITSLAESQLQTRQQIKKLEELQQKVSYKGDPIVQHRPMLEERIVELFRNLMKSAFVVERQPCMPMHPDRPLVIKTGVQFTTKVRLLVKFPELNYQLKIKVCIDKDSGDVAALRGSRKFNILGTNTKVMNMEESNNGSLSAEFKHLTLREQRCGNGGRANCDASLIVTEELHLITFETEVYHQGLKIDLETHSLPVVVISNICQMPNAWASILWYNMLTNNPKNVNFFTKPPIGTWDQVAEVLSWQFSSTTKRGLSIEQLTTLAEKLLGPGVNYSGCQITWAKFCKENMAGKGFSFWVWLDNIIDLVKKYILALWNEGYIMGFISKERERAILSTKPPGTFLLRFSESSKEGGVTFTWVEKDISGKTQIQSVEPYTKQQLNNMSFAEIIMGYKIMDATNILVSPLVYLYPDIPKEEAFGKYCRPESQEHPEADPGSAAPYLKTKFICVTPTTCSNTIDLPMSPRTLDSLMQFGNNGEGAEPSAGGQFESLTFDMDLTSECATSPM

Structure (SMILES): [Cl][Pt]([Cl])([Cl])[Cl] [platinum (IV) chloride]
- Constitutively-active Stat3 in treated tumors (DNA-binding activity by EMSA) [1]: strongly attenuated
- Tumor size, melanoma tumors [2]: complete regression
- Tumor size, colon tumors [3]: complete regression
- Level of DNA-binding activity of Stat3 (EMSA) [4]: disrupts DNA-binding activity of Stat3

Structure (SMILES): [Cl][Pt]1([Cl])[NH]CC[NH]1 [ISS CPA-3]
- pIC50 [5]: 4.57
- pIC50 [6]: 5.08
- Level of DNA-binding activity of Stat1 (EMSA) ([6]; EGF-stimulated fibroblast nuclear extracts, 30 min preincubation, hSIE probe, FIG. 1A): dose-dependent reduction
- Inhibitory effect on Stat5 DNA-binding activity (EMSA) [7]: much reduced inhibitory effect
- Level of DNA-binding activity of Stat3 (EMSA) [4]: dose-dependent reduction
- pIC50 ([4]; nuclear extracts pre-incubated 30 min at room temperature, read-out: IC50 for disruption of STAT DNA-binding activity in vitro, Stat3:Stat3): 5.24
- Inhibition of constitutive Stat3 activation in treated cells (EMSA of nuclear extracts) [8]: modest or negligible

Structure (SMILES): N.N.[Cl][Pt][Cl] [Cisplatin, reference compound]
- Inhibition of constitutive Stat3 activation in treated cells (EMSA of nuclear extracts) [8]: modest or negligible
